Reference: ChEMBL document CHEMBL3885881, “DrugMatrix”

Species: Rattus norvegicus
Experiment: DrugMatrix - Regimen: Daily Repeat
Format: toxicity, organism-based, Sprague-Dawley
Set-up: regimen Daily Repeat, gender Male, age 6-8 weeks
Settings: in vivo, po, route oral GAVAGE, vehicle 100 % WATER; for URIC ACID / ALANINE AMINOTRANSFERASE / ALBUMIN / ALKALINE PHOSPHATASE / ASPARTATE AMINOTRANSFERASE / BLOOD UREA NITROGEN / CARBON DIOXIDE / CHLORIDE / CHOLESTEROL / CREATININE / GLUCOSE / LACTATE DEHYDROGENASE / LIPASE / PHOSPHORUS / POTASSIUM / SODIUM / TOTAL BILIRUBIN / TOTAL PROTEIN / CREATINE PHOSPHOKINASE: tissue Plasma; for ABSOLUTE BASOPHIL / ABSOLUTE EOSINOPHIL / ABSOLUTE LYMPHOCYTE / ABSOLUTE MONOCYTE / ABSOLUTE SEGMENTED NEUTROPHIL / BASOPHIL / EOSINOPHIL / ERYTHROCYTE COUNT / HEMATOCRIT / HEMOGLOBIN / LEUKOCYTE COUNT / LYMPHOCYTE / MEAN CORPUSCULAR HEMOGLOBIN / MEAN CORPUSCULAR HEMOGLOBIN CONCENTRATION / MEAN CORPUSCULAR VOLUME / MONOCYTE / NEUTROPHIL / NUCLEATED RED BLOOD CELLS / PLATELET COUNT: tissue Blood
[1] = 25 mg/kg, 120 h, dose level Low, time 5 day
[2] = 120 mg/kg, 72 h, dose level High, time 3 day
[3] = 120 mg/kg, 120 h, dose level High, time 5 day

c1ccc([C@H]2CN3CCSC3=N2)cc1 [LEVAMISOLE]
URIC ACID (25 mg/kg, 72 h, dose level Low, time 3 day): 1.67 mg/dL
ABSOLUTE BASOPHIL [1]: 0 CELLS/uL
ABSOLUTE EOSINOPHIL [1]: 174 CELLS/uL
ABSOLUTE LYMPHOCYTE [1]: 12224.67 CELLS/uL
ABSOLUTE MONOCYTE [1]: 328 CELLS/uL
ABSOLUTE SEGMENTED NEUTROPHIL [1]: 1106.67 CELLS/uL
BASOPHIL [1]: 0%
EOSINOPHIL [1]: 1.33%
ERYTHROCYTE COUNT [1]: 5.32 x10E6/uL
HEMATOCRIT [1]: 33.6%
HEMOGLOBIN [1]: 13.4 G/DL
LEUKOCYTE COUNT [1]: 13.83 x10E3/uL
LYMPHOCYTE [1]: 88.33%
MEAN CORPUSCULAR HEMOGLOBIN [1]: 25.2 pg
MEAN CORPUSCULAR HEMOGLOBIN CONCENTRATION [1]: 39.9 G/DL
MEAN CORPUSCULAR VOLUME [1]: 63.2 fL
MONOCYTE [1]: 2.33%
NEUTROPHIL [1]: 8%
NUCLEATED RED BLOOD CELLS [1]: 0 /100WBC
PLATELET COUNT [1]: 1156 x10E3/uL
ALANINE AMINOTRANSFERASE [1]: 50 u/L
ALBUMIN [1]: 4.2 G/DL
ALKALINE PHOSPHATASE [1]: 418 u/L
ASPARTATE AMINOTRANSFERASE [1]: 86.33 u/L
BLOOD UREA NITROGEN [1]: 17.67 mg/dL
CARBON DIOXIDE [1]: 27.33 mmol/L
CHLORIDE [1]: 100.67 MEQ/L
CHOLESTEROL [1]: 69.67 mg/dL
CREATININE [1]: 0.19 mg/dL
GLUCOSE [1]: 136 mg/dL
LACTATE DEHYDROGENASE [1]: 423 u/L
LIPASE [1]: 11 u/L
PHOSPHORUS [1]: 11.83 mg/dL
POTASSIUM [1]: 6.36 MEQ/L
SODIUM [1]: 141.8 MEQ/L
TOTAL BILIRUBIN [1]: 0.23 mg/dL
TOTAL PROTEIN [1]: 5.77 G/DL
URIC ACID [1]: 1.4 mg/dL
ABSOLUTE BASOPHIL [2]: 0 CELLS/uL
ABSOLUTE EOSINOPHIL [2]: 0 CELLS/uL
ABSOLUTE LYMPHOCYTE [2]: 11350 CELLS/uL
ABSOLUTE MONOCYTE [2]: 85 CELLS/uL
ABSOLUTE SEGMENTED NEUTROPHIL [2]: 565 CELLS/uL
BASOPHIL [2]: 0%
EOSINOPHIL [2]: 0%
ERYTHROCYTE COUNT [2]: 7.38 x10E6/uL
HEMATOCRIT [2]: 45.33%
HEMOGLOBIN [2]: 17.77 G/DL
LEUKOCYTE COUNT [2]: 12 x10E3/uL
LYMPHOCYTE [2]: 94%
MEAN CORPUSCULAR HEMOGLOBIN [2]: 24.1 pg
MEAN CORPUSCULAR HEMOGLOBIN CONCENTRATION [2]: 39.17 G/DL
MEAN CORPUSCULAR VOLUME [2]: 61.5 fL
MONOCYTE [2]: 1%
NEUTROPHIL [2]: 5%
NUCLEATED RED BLOOD CELLS [2]: 0 /100WBC
PLATELET COUNT [2]: 1087.67 x10E3/uL
ALANINE AMINOTRANSFERASE [2]: 57.33 u/L
ALBUMIN [2]: 4.4 G/DL
ALKALINE PHOSPHATASE [2]: 373.67 u/L
ASPARTATE AMINOTRANSFERASE [2]: 80.33 u/L
BLOOD UREA NITROGEN [2]: 17.67 mg/dL
CARBON DIOXIDE [2]: 28.33 mmol/L
CHLORIDE [2]: 98 MEQ/L
CHOLESTEROL [2]: 87.33 mg/dL
CREATINE PHOSPHOKINASE [2]: 366 u/L
CREATININE [2]: 0.2 mg/dL
GLUCOSE [2]: 152 mg/dL
LACTATE DEHYDROGENASE [2]: 277.67 u/L
LIPASE [2]: 12 u/L
PHOSPHORUS [2]: 12.7 mg/dL
POTASSIUM [2]: 6.52 MEQ/L
SODIUM [2]: 140.77 MEQ/L
TOTAL BILIRUBIN [2]: 0.13 mg/dL
TOTAL PROTEIN [2]: 6 G/DL
URIC ACID [2]: 2.23 mg/dL
ABSOLUTE BASOPHIL [3]: 0 CELLS/uL
ABSOLUTE EOSINOPHIL [3]: 0 CELLS/uL
ABSOLUTE LYMPHOCYTE [3]: 13503 CELLS/uL
ABSOLUTE MONOCYTE [3]: 159 CELLS/uL
ABSOLUTE SEGMENTED NEUTROPHIL [3]: 804.67 CELLS/uL
BASOPHIL [3]: 0%
EOSINOPHIL [3]: 0%
ERYTHROCYTE COUNT [3]: 5.98 x10E6/uL
HEMATOCRIT [3]: 36.6%
HEMOGLOBIN [3]: 14.47 G/DL
LEUKOCYTE COUNT [3]: 14.47 x10E3/uL
LYMPHOCYTE [3]: 93.33%
MEAN CORPUSCULAR HEMOGLOBIN [3]: 24.23 pg
MEAN CORPUSCULAR HEMOGLOBIN CONCENTRATION [3]: 39.53 G/DL
MEAN CORPUSCULAR VOLUME [3]: 61.17 fL
MONOCYTE [3]: 1%
NEUTROPHIL [3]: 5.67%
NUCLEATED RED BLOOD CELLS [3]: 0 /100WBC
PLATELET COUNT [3]: 1244.33 x10E3/uL
ALANINE AMINOTRANSFERASE [3]: 67.33 u/L
ALBUMIN [3]: 4.1 G/DL
ALKALINE PHOSPHATASE [3]: 355.33 u/L
ASPARTATE AMINOTRANSFERASE [3]: 137.33 u/L
BLOOD UREA NITROGEN [3]: 19.33 mg/dL
CARBON DIOXIDE [3]: 20.33 mmol/L
CHLORIDE [3]: 101 MEQ/L
CHOLESTEROL [3]: 84.33 mg/dL
CREATINE PHOSPHOKINASE [3]: 932 u/L
CREATININE [3]: 0.23 mg/dL
GLUCOSE [3]: 177.33 mg/dL
LACTATE DEHYDROGENASE [3]: 504.67 u/L
LIPASE [3]: 12.67 u/L
PHOSPHORUS [3]: 13.73 mg/dL
POTASSIUM [3]: 6.59 MEQ/L
SODIUM [3]: 143.9 MEQ/L
TOTAL BILIRUBIN [3]: 0.27 mg/dL
TOTAL PROTEIN [3]: 5.67 G/DL
URIC ACID [3]: 3.13 mg/dL
